In US9364480B2, “Pharmaceutical composition for preventing or treating cancer, containing enoblock as active ingredient” (GWANGJU INSTITUTE OF SCIENCE AND TECHNOLOGY, priority 2012, dated 2016):
“Also recorded” adds a separate entry of the source.

How the values were obtained:
[1] = system: AKT expression in HCT116 cancer cells; experiment: AKT Western blot; format: cell-based; conditions: 24 h treatment
Description: (§1) FIG. 7. […] (b) Microscopic images of crystal violet stained HCT116 cells invaded onto the transwell inserts (scale bar=100 μm). […] (d) Microscopic images of crystal violet stained HCT116 cells migrated onto the transwell inserts (scale bar=100 μm). […] Cells were treated with 10 nM taxol and 10 nM vincristine, with or without 10 μM ENOblock. Error=SD; *=P<0.05 between the groups indicated on the graph. […] For the AKT Western blot, cells were treated with ENOblock for 24 h; for the Bcl-Xl Western blot, cells were treated with ENOblock for 48 h.

[2] = system: Bcl-Xl expression in HCT116 cancer cells; experiment: Bcl-Xl Western blot; format: cell-based; conditions: 48 h treatment
Description: as §1

[3] = system: zebrafish larvae; experiment: Toxicological analysis using the zebrafish larvae system; format: in vivo, zebrafish (Danio rerio); conditions: for microscopic assessment of larvae morphology: 72 days post fertilization (dfp) zebrafish larvae
Description: FIG. 9. Toxicological study of ENOblock and in vivo analysis of anticancer activity. (A) Toxicological analysis of ENOblock treatment using the zebrafish larvae system. […] (B) Microscopic assessment of […] post fertilization (dfp) zebrafish larvae exposed to increasing doses of ENOblock. […] Error=SD; *=P<0.05 compared to the DMSO treated group. P value: 20 μM ENOblock=0.0121; 40 μM ENOblock=0.0019. […] DMSO treatment served as a control. Three representative embryos are shown from each experimental group, and distributed cancer cell foci are designated with blue arrows. […] Error=SD; *=P<0.05 compared to the DMSO-treated group.
The zebrafish (Danio rerio) cancer cell xenograft model is gaining increasing research prominence as a validated, convenient tool for testing candidate cancer drugs in vivo.^10,11 In addition, zebrafish is a relevant vertebrate platform for predicting toxicological effects in mammals.^12 We observed that 10 μM ENOblock treatment of developing zebrafish larvae was nontoxic (FIG. 9a-9c).

[4] = system: HCT116-xenotransplanted zebrafish; experiment: Zebrafish tumor cell xenograft model; format: in vivo, zebrafish (Danio rerio)
Source text: FIG. 9. Toxicological study of ENOblock and in vivo analysis of anticancer activity. (A) Toxicological analysis of ENOblock treatment using the zebrafish larvae system. […] (B) Microscopic assessment of […] post fertilization (dfp) zebrafish larvae exposed to increasing doses of ENOblock. […] Error=SD; *=P<0.05 compared to the DMSO treated group. […] DMSO treatment served as a control. Three representative embryos are shown from each experimental group, and distributed cancer cell foci are designated with blue arrows. […] Error=SD; *=P<0.05 compared to the DMSO-treated group.
Zebrafish embryos were obtained using standard mating conditions^53 and staged for cell xenoplantation at 48 h post fertilization. After staining of cancer cells (described below), embryos were de-chorionized using micro-forceps and anesthetized with 0.0016% tricaine and positioned on their right side on a wet 1.0% agarose pad. Tumor cells were detached from culture dishes using 0.05% trypsin-EDTA and washed twice with PBS at room temperature. Cells were stained with 2 μg/ml DiI diluted in PBS and washed four times: once with FBS, twice with PBS and then once with 10% FBS diluted in PBS. Cells were kept on ice before injection. Cancer cells were counted by microscopy, suspended in 10% FBS and 100 cells were injected into the center of the yolk sac using an injector equipped with borosilicate glass capillaries (PV820 pneumatic picopump, World Precision Instruments). Injected embryos were transferred to a 96-well plate (one embryo/well) containing drug of interest diluted in […] E3 media (without methylene blue) and maintained at the pre-selected incubation temperature.

[5] = system: 5′ AMP-activated protein kinase (AMPK) expression in hepatocytes; experiment: AMPK expression in hepatocytes; format: cell-based; conditions: 10 μM, 24 h
Source text: FIG. 10. […] Error=SD; *=P<0.05 compared to the no drug (DMSO-treated) group. […] Error=SD; *=P<0.05 for reduced PEPCK expression compared to the no drug (DMSO-treated) group.

[6] = system: zebrafish larvae; experiment: Measurement of glucose uptake in zebrafish (2-NBDG); format: in vivo; design: 2-NBDG signal in lysed larvae (fluorescent plate reader): dose or concentration left out as unconfirmed
Description: FIG. 12. […] (a) Schematic of our approach to measure the effect of ENOblock treatment on […] in zebrafish.
At 72 hpf, larvae were placed into a 96-well plate (6 eggs/well in 200 μL E3 water supplemented with 0.2 mM 2-phenylthiourea; Sigma). Drug of interest was added for […]. The solution was then replaced with E3 water supplemented with 600 μM 2-NBDG and incubated for 3 h. The larva were washed with E3 water and anesthetized with 0.02% tricaine-supplemented E3 water. One larva was then placed on a chamber slide, containing 3% methylcellulose in E3 water, for fluorescent microscopy (Leica DM2500 microscope equipped with a DFC425 C digital camera). Images were captured at 50× magnification. The remaining 5 larvae where lysed with 120 μL of CelLytic M solution (Sigma-Aldrich) and sonication (4° C., 10″/5″ pulse, 10 min). Lysed larvae were centrifuged at 10000 rpm for 10 min. 100 μL of the supernatant was transferred to a 96-well plate and fluorescence was measured with a fluorescent microplate reader (SpectraMAX Gemini XS, Molecular Devices; λex=466 nm […]).

[7] = system: monocytes; experiment: Monocyte differentiation into macrophages (attached cell count, PMA); format: cell-based; conditions: PMA treated; 10 μM
Description: FIG. 14. […] Treatment with 3 mM H2O2 for 48 h was used as a positive control.

In the case of `NCCOCCOCCNC(=O)Cc1ccc(Nc2nc(NCc3ccc(F)cc3)nc(NCC3CCCCC3)n2)cc1` [ENOblock], the AKT expression [1] is reported as “decreased the expression of AKT and Bcl-Xl”, the Bcl-Xl expression [2] is reported as “decreased the expression of AKT and Bcl-Xl” and the “overall zebrafish larvae viability” value ([3]; 10 μM) is reported as “did not affect viability”. For the same compound, the “overall zebrafish larvae viability” value ([3]; 20 μM) was “reduced overall zebrafish larvae viability”, the “overall zebrafish larvae viability” value ([3]; 40 μM) was “reduced overall zebrafish larvae viability” and the “microscopic assessment of larvae morphology” value ([3]; 20 μM) was “produced an abnormally large swim bladder”. The “microscopic assessment of larvae morphology” value ([3]; 40 μM) was “produced multiple abnormalities in the larvae”, the “toxicity / tolerability (developmental parameters)” value ([3]; zebrafish larvae, 10 μM) was “could be tolerated by the larvae; also recorded: nontoxic” and the ability to swim ([3]; zebrafish larvae, 20 μM) was “inhibited the ability to swim”. For the same compound, the “number of embryos showing cancer cell migration and metastasis (dissemination) from the yolk sac injection site” value ([4]; 10 μM for 96 h, DMSO control) was “reduced the number of embryos showing migration and metastasis; also recorded: reduced cancer cell dissemination”, the “quantification of xenotransplanted cancer cell microfoci” value ([4]; 10 μM for 96 h, vs DMSO-treated group) was “significantly reduced cancer cell migration and metastasis” and the “viability of xenotransplanted cancer cells” value ([4]; normoxia) was “without noticeably affecting cancer cell viability”. The AMPK expression [5] was “did not affect expression of the enzymes”, the “glucose uptake in larvae (2-NBDG fluorescence microscopy)” value ([6]; 10 μM, 4 h) was “increased glucose uptake in the zebrafish larvae” and the “2-NBDG fluorescence signal intensity in the eye” value ([6]; 72 hpf larvae, 10 μM, 4 h, vs 2-NBDG alone) was “induced significantly greater fluorescent tagged glucose uptake in the zebrafish eye”. For the same compound, the “2-NBDG signal in lysed larvae (fluorescent plate reader)” value ([6]; 72 hpf zebrafish) was “induced glucose uptake” and the “monocyte differentiation into macrophages (number of attached cells)” value [7] was “inhibited differentiation into macrophages”.
